Source: patent US9789114B2, “Compounds as HIF-1α inhibitors and manufacturing process thereof” (DONGGUK UNIVERSITY INDUSTRY-ACADEMIC COOPERATION FOUNDATION, priority 2011, dated 2017)
Read-outs that look alike come from different tables or passages of the source.

Legend:
[1] = test system: GAPDH; experiment: GAPDH expression level (internal control) in western blot, HCT116 cells; type: cell-based, human; details: HCT116, hypoxia 1% O2, 0-30 μM, 12 hours, FIG. 1
Protocol: (§1) First, HCT116 human colon cancer cells (ATCC #CCL-247) were plated at the concentration of 2×10^5 cells/ml. After 24 hours, the cells were incubated under hypoxia (1% O2, 94% N2, and 5% CO2, expressed as 1% O2 in FIG. 1) for 4 hours in order to induce HIF-la accumulation. Cells were treated with the compounds at various concentrations (0, 3, 10, 20, and 30 μM) for 12 hours under hypoxia. The cells were then harvested, and lysed in RIPA buffer to obtain nuclear extracts. Cells grown at 20% O2 (normoxia) were used as control groups to compare HIF-1α-mediated gene expression under each condition. 30 μg of the nuclear extracts per sample was separated by SDS-PAGE (sodium dodecyl sulfate-polyacrylamide gel electrophoresis), and was then transferred to PVDF (polyvinylidene fluoride membrane) membranes. After membranes were probed with HIF-1α antibodies (R&D System), HIF-1α proteins were detected with HRP-conjugated secondary antibodies (Amersham-Pharmacia). GAPDH (Glyceraldehyde 3-phosphate dehydrogenase) was used as an internal control for loading in western blot analysis.

[2] = test system: Chick embryo chorioallantoic membrane; experiment: CAM (chick embryo chorioallantoic membrane) assay; type: in vivo; details: 10-20 μg on coverslip, 2 days, FIG. 2
Protocol: CAM (Chick embryo chorioallantoic membrane) assay was conducted as an in vivo model to determine whether the compounds according to the present invention, I-3, I-6, I-19, and I-22, had anti-angiogenic effects or not. DMSO-treated groups were used as negative controls.
According to the present invention, CAM assay was performed as follows.
Fertilized eggs were incubated periodically rolling at 37° C. with 50% humidity for 2-3 days. When eggs were erected, approximately 3 ml of albumin was extracted from the sharp edge of the eggs using a syringe. The hole of the eggs was sealed with a tape to prevent from dryness and contamination, and the hole of the eggs was put down and incubated for 2 to 3 days. After punching a hole with 1.5 cm diameter in the round part of eggs, opaque membrane was removed carefully. The compounds (10-20 μg) according to the present invention were placed and spread on thermanox coverslip equally to dry, and then the hole in the round part of eggs put on the upper part of the fertilized eggs that vessels grew. The eggs were examined under the dissecting microscope and the results were given in FIG. 2, after covering the hole with a coverglass to protect it from contamination for 2 days.

[3] = test system: HIF-1α-mediated HRE transcriptional activity; experiment: Assay for inhibition of HIF-1α-mediated transcriptional activity (HRE reporter assay); type: cell-based, human; details: Homo sapiens, HCT-116, HCT116 cells, 12 hours under hypoxia (1% O2), read-out: Inhibitory activity against HIF-1α (10 μM)
Protocol: <Experiment 1> Assay for Inhibition of HIF-1α-Mediated Transcriptional Activity (HRE Reporter Assay)
The compounds can be developed as anti-cancer drugs, because the compounds inhibiting HIF-1α-mediated HRE transcriptional activity induced by hypoxia can suppress the growth and metastasis of cancer.
Inhibitory effects of the compounds according to the present invention, from Formula I-1 to I-42, on HIF-1α-mediated transcriptional activity were evaluated using this assay. pGL3-HRE-luciferase vector was constructed as follows. Six copies of HRE (Hypoxia Responsive Element, 5′-ACGTG-3′) from human VEGF genes were inserted into the multi-cloning site of a pGL3-basic vector (Promega). A luciferase gene was used as a reporter gene.
In detail, HCT116(ATCC #CCL-247) human colon cancer cells were seeded in 48-well cell culture plates. The cells were co-transfected with 25 ng of pGL3-HRE-luciferase and 2.5 ng of Renila control vectors using Polyfect reagent next day. After 24 hours of incubation, the cells were incubated for an additional 4 hours with replaced cell culture media. The cells were treated with various concentrations (0, 1, 3, 5, 10, and 20 μM) of the above compounds according to the present invention and incubated for 12 hours under hypoxia (1% O2, 94% N2, and 5% CO2). The luciferase assay was performed using a dual-luciferase reporter assay system (Promega). After cell lysate preparation with RIPA buffer, induced luciferase activity under hypoxic conditions was determined to examine inhibitory effects of the compounds according to the present invention, from Formula I-1 to I-42, on HIF-1α-mediated transcriptional activity.

[4] = Body weight change and side effects during 14 days of oral treatment in nude mice; type: in vivo, BALB/c nu/nu mice
Protocol: (§2) In vivo anti-cancer activity of the compounds according to the present invention, I-3, I-6, I-8, I-16, I-19, I-22, I-23, and I-24, was measured in mice to evaluate in vivo efficacy by oral administration. Specifically, the nude mice were divided into test groups and control groups, each consisting of 4 mice. In vivo efficacy was evaluated by measuring body weight, tumor volume, and tumor weight.
(§3) Female nude mice 6 weeks old (BALB/c nu/nu, Charles River) were bred in germ-free breeding rooms maintained at constant temperature and humidity. After the nude mice were anesthetized, HCT116 colon cancer cells were implanted at a count of […] cells/mouse into the rectum in BALB/c nu/nu mice and then the incisions were closed with surgical clips. The size of tumor was measured by a caliper. When the size of transplanted tumor reached to 50˜60 mm^3, the above compounds according to the present invention were administered. In more detail, after the above compounds in test groups were dissolved at concentration of 20 mg/kg in a solvent containing 80% of physiological saline, 10% of DMAC (dimethylacetamide), and 10% Tween 80 (hereinafter referred to as ‘Solvent A’), […] of dissolved compounds were orally administered once a day. Mice in control groups were treated with […] of Solvent A alone once daily.
(§4) Tumor volume and body weight were measured to identify in vivo anti-cancer activity of the compounds according to the present invention by repetitive oral administration. Tumor volume and tumor growth inhibition (TGI) in Table 2 were calculated according to the below Mathematic FIG. 1 and FIG. 2, respectively. Tumor growth inhibition was converted to a percentage in Table 2.
Moreover, severe side effects and statistically significant changes of body weight in all mice treated compounds were not shown for 14 days, comparing to control groups treated with vehicle. (Table 3)

[5] = target: T1, HIF-1α (Homo sapiens, UniProt Q16665); experiment: Inhibition of hypoxia-induced HIF-1α accumulation, western blot in HCT116 cells; type: cell-based; details: HCT116, hypoxia 1% O2, 0-30 μM, 12 hours, FIG. 1
T1 construct: endogenous in cells; host or cells: HCT116 human colon cancer cells (ATCC #CCL-247)
Protocol: <Experiment 2> In Vitro Studies for Inhibition of Hypoxia-Induced HIF-1α Accumulation
Inhibition of HIF-1α accumulation by the compounds according to the present invention was determined in HCT116 human colon cancer cells. In particular, western blot analysis was used to identify the compounds, I-3, I-6, I-8, I-16, I-19, I-22˜I-24, and I-27˜I-36, which inhibited HIF-1α accumulation under hypoxia.
as §1

[6] = test system: HCT116 colon cancer cells; experiment: In vivo anti-cancer activity by oral administration, HCT116 tumor in nude mice; set-up: species or system BALB/c nu/nu mice; details: for inhibitory effects on tumor growth (TGI results): 20 mg/kg oral once a day, 14 days; for inhibition in vivo at 20 mg/kg: Mus musculus
Protocol: <Example 4> In Vivo Anti-Cancer Activity of Compounds by Oral Administration
as §2, §3, §4

[7] = day 0, 20 mg/kg oral once a day
[8] = day 3, 20 mg/kg oral once a day
[9] = day 5, 20 mg/kg oral once a day
[10] = day 7, 20 mg/kg oral once a day
[11] = day 10, 20 mg/kg oral once a day
[12] = day 12, 20 mg/kg oral once a day
[13] = day 14, 20 mg/kg oral once a day
[14] = HCT-116, 72 h, day 3, 20 mg/kg oral once a day, read-out: TGI (tumor growth inhibition), tumor volume
[15] = HCT-116, 120 h, day 5, 20 mg/kg oral once a day, read-out: TGI (tumor growth inhibition), tumor volume
[16] = HCT-116, 168 h, day 7, 20 mg/kg oral once a day, read-out: TGI (tumor growth inhibition), tumor volume
[17] = HCT-116, 240 h, day 10, 20 mg/kg oral once a day, read-out: TGI (tumor growth inhibition), tumor volume
[18] = HCT-116, 288 h, day 12, 20 mg/kg oral once a day, read-out: TGI (tumor growth inhibition), tumor volume
[19] = HCT-116, 336 h, day 14, 20 mg/kg oral once a day, read-out: TGI (tumor growth inhibition), tumor volume
[20] = HCT-116, 336 h, day 14, 20 mg/kg oral once a day, read-out: TGI (tumor growth inhibition), tumor weight

T1 sequence (Q16665 whole entry): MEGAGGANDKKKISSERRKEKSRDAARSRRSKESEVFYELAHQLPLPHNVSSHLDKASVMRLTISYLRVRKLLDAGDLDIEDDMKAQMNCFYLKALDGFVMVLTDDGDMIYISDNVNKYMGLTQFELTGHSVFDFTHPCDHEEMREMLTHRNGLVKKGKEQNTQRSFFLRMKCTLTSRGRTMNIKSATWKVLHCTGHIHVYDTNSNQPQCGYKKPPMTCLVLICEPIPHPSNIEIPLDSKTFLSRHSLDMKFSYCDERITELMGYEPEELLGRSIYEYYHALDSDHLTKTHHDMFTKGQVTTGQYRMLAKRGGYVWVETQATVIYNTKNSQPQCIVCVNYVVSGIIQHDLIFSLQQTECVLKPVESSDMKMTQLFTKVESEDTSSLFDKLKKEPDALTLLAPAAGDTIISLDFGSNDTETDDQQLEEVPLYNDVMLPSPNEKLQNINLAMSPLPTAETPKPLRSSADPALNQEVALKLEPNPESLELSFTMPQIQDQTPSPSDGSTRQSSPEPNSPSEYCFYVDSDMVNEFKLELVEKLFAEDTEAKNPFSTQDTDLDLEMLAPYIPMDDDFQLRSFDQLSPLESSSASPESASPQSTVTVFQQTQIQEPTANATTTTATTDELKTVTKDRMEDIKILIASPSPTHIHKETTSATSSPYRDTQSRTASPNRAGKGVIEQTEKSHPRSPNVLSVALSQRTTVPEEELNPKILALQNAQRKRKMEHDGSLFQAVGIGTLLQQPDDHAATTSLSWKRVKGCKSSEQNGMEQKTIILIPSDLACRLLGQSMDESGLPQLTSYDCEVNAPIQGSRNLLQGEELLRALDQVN

With `C[N+](C)(C)CCNC(=O)CCOc1ccc(C23CC4CC(CC(C4)C2)C3)cc1.[I-]` [Compound I-19, 2-(3-(4-(Adamantan-1-yl)phenoxy)propanamido)-N,N,N-trimethylethanaminium iodide] the GAPDH expression levels [1] was “did not affect GAPDH expression levels”, the “formation of vessels (anti-angiogenic effect)” value (“formation of vessels” below) [2] was “inhibited formation of vessels” and the inhibition at 10 µM [3] was 26 to 50%. The Body weight change [4, 7] was 100.0 ± 0.0%, the Body weight change [4, 8] was 104.0 ± 1.6% and the Body weight change [4, 9] was 104.7 ± 3.1%. The Body weight change [4, 10] was 104.6 ± 4.0%, the Body weight change [4, 11] was 105.1 ± 4.3% and the Body weight change [4, 12] was 103.4 ± 3.5%. For the same compound, the Body weight change [4, 13] was 102.2 ± 3.8%, the HIF-1α degradation [5] was “promoted HIF-1α degradation” and the “inhibitory effects on HIF-1α accumulation” value [5] was “significant inhibitory effects on HIF-1α accumulation”. For the same compound, the “inhibitory effects on tumor growth (TGI results)” value [6] was “significant inhibitory effects on tumor growth”, the inhibition in vivo at 20 mg/kg [6, 14] was 34.1% and the inhibition in vivo at 20 mg/kg [6, 15] was 36.4%. The inhibition in vivo at 20 mg/kg [6, 16] was 36.8%, the inhibition in vivo at 20 mg/kg [6, 17] was 37.7% and the inhibition in vivo at 20 mg/kg [6, 18] was 37.8%. It also gave an inhibition in vivo at 20 mg/kg [6, 19] of 39.2%, an inhibition in vivo at 20 mg/kg [6, 20] of 41.3% and a Tumor volume [6, 8] of 22.4 ± 5.6 mm^3. The Tumor volume [6, 9] was 58.8 ± 11.3 mm^3, the Tumor volume [6, 10] was 110.4 ± 11.2 mm^3 and the Tumor volume [6, 11] was 162.3 ± 10.1 mm^3. For the same compound, the Tumor volume [6, 12] was 278.8 ± 35.0 mm^3, the Tumor volume [6, 13] was 404.7 ± 17.6 mm^3 and the Tumor weight [6, 13] was 1392.4 ± 153.0 mg.

In the case of `C[N+]1(C)CCN(C(=O)CCCOc2ccc(C34CC5CC(CC(C5)C3)C4)cc2)CC1.[I-]` [Compound I-22, 4-(4-(4-(Adamantan-1-yl)phenoxy)butanoyl)-1,1-dimethylpiperazin-1-ium iodide], the “formation of vessels” value [2] is reported as “inhibited formation of vessels”, the inhibition at 10 µM [3] is reported as 51 to 75% and the Body weight change [4, 7] is reported as 100.0 ± 0.0%. It also gave a Body weight change [4, 8] of 104.1 ± 3.5%, a Body weight change [4, 9] of 104.1 ± 4.6% and a Body weight change [4, 10] of 104.1 ± 3.3%. For the same compound, the Body weight change [4, 11] was 105.6 ± 5.1%, the Body weight change [4, 12] was 103.8 ± 3.6% and the Body weight change [4, 13] was 102.7 ± 4.1%. For the same compound, the “inhibitory effects on HIF-1α accumulation” value [5] was “significant inhibitory effects on HIF-1α accumulation”, the “inhibitory effects on tumor growth (TGI results)” value [6] was “significant inhibitory effects on tumor growth” and the inhibition in vivo at 20 mg/kg [6, 14] was 39.8%. It also gave an inhibition in vivo at 20 mg/kg [6, 15] of 40.8%, an inhibition in vivo at 20 mg/kg [6, 16] of 43.4% and an inhibition in vivo at 20 mg/kg [6, 17] of 45.1%. The inhibition in vivo at 20 mg/kg [6, 18] was 45.1%, the inhibition in vivo at 20 mg/kg [6, 19] was 47.8% and the inhibition in vivo at 20 mg/kg [6, 20] was 49.5%. The Tumor volume [6, 8] was 20.4 ± 1.1 mm^3, the Tumor volume [6, 9] was 54.7 ± 2.8 mm^3 and the Tumor volume [6, 10] was 98.9 ± 4.8 mm^3. The Tumor volume [6, 11] was 143.1 ± 6.2 mm^3, the Tumor volume [6, 12] was 246.4 ± 10.8 mm^3 and the Tumor volume [6, 13] was 347.6 ± 11.8 mm^3. It also gave a Tumor weight [6, 13] of 1197.3 ± 156.3 mg.

With `CN1CCN(C(=O)COc2ccc(C34CC5CC(CC(C5)C3)C4)cc2)CC1` [Compound I-3, 2-(4-(Adamantan-1-yl)phenoxy)-1-(4-methylpiperazin-1-yl)ethanone] the GAPDH expression levels [1] was “did not affect GAPDH expression levels”, the “formation of vessels” value [2] was “inhibited formation of vessels” and the inhibition at 10 µM [3] was 76 to 100%. It also gave a Body weight change [4, 7] of 100.0 ± 0.0%, a Body weight change [4, 8] of 103.2 ± 2.8% and a Body weight change [4, 9] of 104.7 ± 3.0%. For the same compound, the Body weight change [4, 10] was 105.1 ± 2.8%, the Body weight change [4, 11] was 104.6 ± 2.7% and the Body weight change [4, 12] was 103.1 ± 2.7%. For the same compound, the Body weight change [4, 13] was 103.7 ± 4.0%, the HIF-1α degradation [5] was “promoted HIF-1α degradation” and the “inhibitory effects on HIF-1α accumulation” value [5] was “significant inhibitory effects on HIF-1α accumulation”. For the same compound, the “inhibitory effects on tumor growth (TGI results)” value [6] was “significant inhibitory effects on tumor growth”, the inhibition in vivo at 20 mg/kg [6, 14] was 33.2% and the inhibition in vivo at 20 mg/kg [6, 15] was 35%. The inhibition in vivo at 20 mg/kg [6, 16] was 36%, the inhibition in vivo at 20 mg/kg [6, 17] was 41.6% and the inhibition in vivo at 20 mg/kg [6, 18] was 44.1%. The inhibition in vivo at 20 mg/kg [6, 19] was 49.2%, the inhibition in vivo at 20 mg/kg [6, 20] was 51.5% and the Tumor volume [6, 8] was 31.6 ± 5.0 mm^3. For the same compound, the Tumor volume [6, 9] was 74.8 ± 11.7 mm^3, the Tumor volume [6, 10] was 133.7 ± 14.8 mm^3 and the Tumor volume [6, 11] was 237.0 ± 24.9 mm^3. It also gave a Tumor volume [6, 12] of 371.4 ± 36.2 mm^3, a Tumor volume [6, 13] of 587.8 ± 48.4 mm^3 and a Tumor weight [6, 13] of 2074.2 ± 373.8 mg.
